# Laboratory results reported in patent publication US11959086B2, “Dual transit peptides for targeting polypeptides” (BASF AGRO B.V., priority 2016, dated 2024).
# Assays:
# Experiment in all cases: Herbicide injury evaluation of Arabidopsis plants, greenhouse
# Type in all cases: in vivo
# [1] = test system: transgenic Arabidopsis thaliana, transgene SEQ ID NO 118; conditions: scale 0-100
# [2] = test system: transgenic Arabidopsis thaliana, transgene SEQ ID NO 120; conditions: Table 4, scale 0-100
# [3] = test system: Wildtype/non-transgenic Arabidopsis thaliana; conditions: scale 0-100
# [4] = test system: transgenic Arabidopsis thaliana, transgene SEQ ID NO 117; conditions: Table 3, scale 0-100
# [5] = test system: transgenic Arabidopsis thaliana, transgene SEQ ID NO 128; conditions: Table 3, scale 0-100
# [6] = test system: transgenic Arabidopsis thaliana, transgene SEQ ID NO 121; conditions: Table 3, scale 0-100
smiles,measurement,setting,value
"CCOC(=O)COc1ncccc1Oc1cc(-n2c(=O)cc(C(F)(F)F)n(C)c2=O)c(F)cc1Cl [S3100, ethyl [3-[2-chloro-4-fluoro-5-(1-methyl-6-trifluoromethyl-2,4-dioxo-1,2,3,4-tetrahydropyrimidin-3-yl)phenoxy]-2-pyridyloxy]acetate]",Herbicide injury evaluation 14 days after herbicide treatment,"[1]; Table 4, SEQ ID NO 118 Q, 50 g ai/ha + 1% MSO",65
same,Herbicide injury evaluation 14 days after herbicide treatment,"[1]; Table 4, SEQ ID NO 118 Q, 100 g ai/ha + 1% MSO",65
same,Herbicide injury evaluation 14 days after herbicide treatment,"[1]; Table 4, SEQ ID NO 118 Q, 200 g ai/ha + 1% MSO",65
same,Herbicide injury evaluation 14 days after herbicide treatment,"[1]; Table 4, SEQ ID NO 118 R, 50 g ai/ha + 1% MSO",60
same,Herbicide injury evaluation 14 days after herbicide treatment,"[1]; Table 4, SEQ ID NO 118 R, 100 g ai/ha + 1% MSO",63
same,Herbicide injury evaluation 14 days after herbicide treatment,"[1]; Table 4, SEQ ID NO 118 R, 200 g ai/ha + 1% MSO",53
same,Herbicide injury evaluation 14 days after herbicide treatment,"[2]; SEQ ID NO 120 J, 50 g ai/ha + 1% MSO",75
same,Herbicide injury evaluation 14 days after herbicide treatment,"[2]; SEQ ID NO 120 J, 100 g ai/ha + 1% MSO",95
same,Herbicide injury evaluation 14 days after herbicide treatment,"[2]; SEQ ID NO 120 J, 200 g ai/ha + 1% MSO",80
same,Herbicide injury evaluation 14 days after herbicide treatment,"[2]; SEQ ID NO 120 M, 50 g ai/ha + 1% MSO",97
same,Herbicide injury evaluation 14 days after herbicide treatment,"[2]; SEQ ID NO 120 M, 100 g ai/ha + 1% MSO",85
same,Herbicide injury evaluation 14 days after herbicide treatment,"[2]; SEQ ID NO 120 M, 200 g ai/ha + 1% MSO",89
same,Herbicide injury evaluation 14 days after herbicide treatment,"[3]; Table 4, 50 g ai/ha + 1% MSO",100
same,Herbicide injury evaluation 14 days after herbicide treatment,"[3]; Table 4, 100 g ai/ha + 1% MSO",100
same,Herbicide injury evaluation 14 days after herbicide treatment,"[3]; Table 4, 200 g ai/ha + 1% MSO",100
"Cc1nn(-c2cc(NS(C)(=O)=O)c(Cl)cc2Cl)c(=O)n1C(F)F [Sulfentrazone, sulfentrazone]",Herbicide injury evaluation 14 days after herbicide treatment,"[4]; SEQ ID NO 117 C, 280 g ai/ha + 1% MSO",83
same,Herbicide injury evaluation 14 days after herbicide treatment,"[4]; SEQ ID NO 117 C, 560 g ai/ha + 1% MSO",99
same,Herbicide injury evaluation 14 days after herbicide treatment,"[4]; SEQ ID NO 117 C, 1120 g ai/ha + 1% MSO",98
same,Herbicide injury evaluation 14 days after herbicide treatment,"[4]; SEQ ID NO 117 I, 280 g ai/ha + 1% MSO",89
same,Herbicide injury evaluation 14 days after herbicide treatment,"[4]; SEQ ID NO 117 I, 560 g ai/ha + 1% MSO",85
same,Herbicide injury evaluation 14 days after herbicide treatment,"[4]; SEQ ID NO 117 I, 1120 g ai/ha + 1% MSO",98
same,Herbicide injury evaluation 14 days after herbicide treatment,"[5]; SEQ ID NO 128 D, 280 g ai/ha + 1% MSO",73
same,Herbicide injury evaluation 14 days after herbicide treatment,"[5]; SEQ ID NO 128 D, 560 g ai/ha + 1% MSO",83
same,Herbicide injury evaluation 14 days after herbicide treatment,"[5]; SEQ ID NO 128 D, 1120 g ai/ha + 1% MSO",95
same,Herbicide injury evaluation 14 days after herbicide treatment,"[5]; SEQ ID NO 128 E, 280 g ai/ha + 1% MSO",70
same,Herbicide injury evaluation 14 days after herbicide treatment,"[5]; SEQ ID NO 128 E, 560 g ai/ha + 1% MSO",93
same,Herbicide injury evaluation 14 days after herbicide treatment,"[5]; SEQ ID NO 128 E, 1120 g ai/ha + 1% MSO",95
same,Herbicide injury evaluation 14 days after herbicide treatment,"[1]; Table 3, SEQ ID NO 118 Q, 280 g ai/ha + 1% MSO",25
same,Herbicide injury evaluation 14 days after herbicide treatment,"[1]; Table 3, SEQ ID NO 118 Q, 560 g ai/ha + 1% MSO",40
same,Herbicide injury evaluation 14 days after herbicide treatment,"[1]; Table 3, SEQ ID NO 118 Q, 1120 g ai/ha + 1% MSO",48
same,Herbicide injury evaluation 14 days after herbicide treatment,"[1]; Table 3, SEQ ID NO 118 R, 280 g ai/ha + 1% MSO",15
same,Herbicide injury evaluation 14 days after herbicide treatment,"[1]; Table 3, SEQ ID NO 118 R, 560 g ai/ha + 1% MSO",18
same,Herbicide injury evaluation 14 days after herbicide treatment,"[1]; Table 3, SEQ ID NO 118 R, 1120 g ai/ha + 1% MSO",40
same,Herbicide injury evaluation 14 days after herbicide treatment,"[3]; Table 3, 280 g ai/ha + 1% MSO",100
same,Herbicide injury evaluation 14 days after herbicide treatment,"[3]; Table 3, 560 g ai/ha + 1% MSO",100
same,Herbicide injury evaluation 14 days after herbicide treatment,"[3]; Table 3, 1120 g ai/ha + 1% MSO",100
same,Herbicide injury evaluation 14 days after herbicide treatment,"[6]; SEQ ID NO 121 G, 280 g ai/ha + 1% MSO",100
same,Herbicide injury evaluation 14 days after herbicide treatment,"[6]; SEQ ID NO 121 G, 560 g ai/ha + 1% MSO",100
same,Herbicide injury evaluation 14 days after herbicide treatment,"[6]; SEQ ID NO 121 G, 1120 g ai/ha + 1% MSO",100
same,Herbicide injury evaluation 14 days after herbicide treatment,"[6]; SEQ ID NO 121 H, 280 g ai/ha + 1% MSO",100
same,Herbicide injury evaluation 14 days after herbicide treatment,"[6]; SEQ ID NO 121 H, 560 g ai/ha + 1% MSO",100
same,Herbicide injury evaluation 14 days after herbicide treatment,"[6]; SEQ ID NO 121 H, 1120 g ai/ha + 1% MSO",100
